Measurements published in patent publication US20040038369A1, “Airway-specific trypsin-like enzymes and method of using the same” (priority 2000, published 2004).

Key:
[1] = tested on: EGF on surface of H292 cell membrane; test: Surface antigen analysis (FACS) of EGF on NCI-H292 cell membrane; type: cell-based, human; settings: HAST 300 mU/mL + inhibitor (leupeptin 10 μM, BB1101 5 μM); PBS 10.79, HAST alone 8.33
Method: (§1) NCI-H292 cells (purchased from ATCC) were cultured on a 10 cm dish in 10% FCS-containing RPMI-1640 until to reach a confluent state, subjected to the replacement of the culture medium by RPMI-1640 containing 0.1% of BSA, and further cultured for 24 hours. The cultured cells were washed with PBS, treated and floated in PBS containing 5 mM of EDTA at 37° C. for five minutes, and then suspended in 0.1%BSA-containing RPMI-1640 in a density of 1.0×10^7 cells/mL.
(§2) The above-described cell suspension and 0.1% BSA-containing RPMI-1640 containing HAST in a double concentration (600 mU/mL) were mixed with each other in equivalent amounts, respectively, and reacted with each other at 37° C. for 30 minutes (final cell concentration: 5.0×10^6 cells/mL, final HAST concentration: 300 mU/mL). The reaction solution was mixed with ice-cooled 1% FCS-containing PBS in a volume of 5 times that of the reaction solution to stop the reaction, and the treated solution was then supplied for a surface antigen analysis.
(§3) The cells subjected to the prescribed treatments were suspended in 1% FCS-containing PBS in a density of 1.0×10^7 cells/mL. 100 μL of the prepared cell suspension was mixed with a primary antigen (EGF back ground dyeing: 1 μg of normal mouse IgG1 (produced by R & D Corp.), EGF dyeing: 1 μg of an anti-EGF mouse monoclonal antibody (produced by R & D Corp.), HB-EGF back ground dyeing: free from the primary antigen, HB-EGF dyeing: 2 μg of an anti-HB-EGF goat polyclonal antibody (produced by R & D Corp.)) and reacted on ice for 30 minutes. The reaction product was once washed with 5 mL of 1% FCS-containing PBS, mixed with 2 μg of a secondary antigen (EGF back ground dyeing and EGF dyeing: FITC conjugated F(ab′)2 fragment to mouse IgG (produced by Dako Corp.), HB-EGF back ground dyeing and HB-EGF dyeing: Swine Anti-Goat Ig's Fluorescein Conjugate (produced by KPL Corp.)), and then reacted on ice for 30 minutes. The reaction solution was once washed with 5 mL of 1% FCS-containing PBS, and then mixed with Cell Fix (produced by Becton Dickinson Corp.) to immobilize the cells. The expression of the surface antigen was assayed with FACS Calibur (produced by Becton Dickinson Corp.) and analyzed with Cell Quest (produced by Becton Dickinson Corp.). Average fluorescence intensities were shown in the next table as the indicators of expression intensities.
(§4) HAST (600 mU/mL) was reacted with leupeptin (10 μM) or BB1101 (5 μM) in 0.1% BSA-containing RPMI-1640 on ice for 30 minutes, and the reaction solution was mixed with the equivalent amount of a cell suspension preliminarily treated with leupeptin (10 μM) or BB1101 (5 μM) at 37° C. for 30 minutes, and further treated at 37° C. for 30 minutes (final HAST concentration: 300 mU/mL, final leupeptin concentration: 10 μM, final BB1101 concentration: 5 μM, final cell concentration: 5.0×10^6 cells/mL). The reaction solution was mixed with ice-cooled 1% FCS-containing PBS in an amount of five times that of the reaction solution to stop the reaction, and then supplied for the surface antigen analysis.
(§5) The cells subjected to the prescribed treatments were suspended in 1% FCS-containing PBS in a density of 1.0×10^7 cells/mL. […]

[2] = tested on: HB-EGF on surface of H292 cell membrane; test: Surface antigen analysis (FACS) of HB-EGF on NCI-H292 cell membrane; type: cell-based, human; settings: HAST 300 mU/mL + inhibitor (leupeptin 10 μM, BB1101 5 μM); PBS 8.61, HAST alone 6.26
Method: as §1, §2, §3, §4, §5

NCI-H292 cells = test: AB-PAS staining of mucus glycoprotein in NCI-H292 cells; type: cell-based, human; settings: FIG. 1 and 2
Method: (§6) NCI-H292 cells (human pulmonary mucoepidermoid tumor cell strain, purchased from ATCC) were suspended in 10% FCS (Fetal Calf Serum)-containing RPMI-1640 (produced by Gibco Corp.), sowed on a Lab-Tek 8 well chamber slide (produced by Nunc Corp.) in a density of 6.0×10^4 cells/cm^2, cultured for 72 hours, subjected to the replacement of the culture solution by RPMI-1640 containing 0.1% of BSA, and further cultured for 24 hours.
On the day of the treatment, the culture solution of each well was replaced by RPMI-1640 (containing 0.1% BSA) containing EGF (5 ng/mL, produced by Becton Dickinson Corp.), HB-EGF (5 ng/mL, produced by R & D Corp.), TGF-α (5 ng/mL, produced by Peprotech Corp.), or PBS to start the treatment. Then, the cells were incubated at 37° C. for 24 hours.
After the prescribed 24 hours treatment, the culture supernatant was removed. The residue was once washed with PBS, mixed with 4% paraformaldehyde/PBS, and then allowed to stand at room temperature for one hour to immobilize the cells. The immobilized cells were twice washed with Milli Q water and then stained with AB-PAS. The staining was carried out according to a book (“All of new dyeing methods” p136-150 (Iyaku Shuppansha)). After staining, the cells were sequentially immersed in 70, 80, and 100% ethanol for five minutes, respectively, to remove water, sealed in an Aquatex (produced by Merck Corp.), and then subjected to the observation of the staining image with an optical microscope. From the results, it was clarified that all of HAST, TGF-α, EGF, and HB-EGF promoted the production of the mucus glycoprotein.
as §6, with “(purchased” for “(human pulmonary mucoepidermoid tumor cell strain, purchased”, “FCS-containing” for “FCS (Fetal Calf Serum)-containing”, “hours. […]” for “hours.”

PAR-2 = molecular target: T1, PAR-2 (Homo sapiens, UniProt P55085); test: Calcium influx in PAR-2-expressing insect cells; type: cell-based; settings: AST 2 units/mL; trypsin, thrombin 0.1 to 10 units/mL; SFLLRNamide, SLIGRL 10 to 100 μM
T1 construct: expressed in transfected cells; host or cells: Sf9 insect cells infected with recombinant baculovirus VL-PAR (pVL1393)
T1 sequence (P55085 26-397): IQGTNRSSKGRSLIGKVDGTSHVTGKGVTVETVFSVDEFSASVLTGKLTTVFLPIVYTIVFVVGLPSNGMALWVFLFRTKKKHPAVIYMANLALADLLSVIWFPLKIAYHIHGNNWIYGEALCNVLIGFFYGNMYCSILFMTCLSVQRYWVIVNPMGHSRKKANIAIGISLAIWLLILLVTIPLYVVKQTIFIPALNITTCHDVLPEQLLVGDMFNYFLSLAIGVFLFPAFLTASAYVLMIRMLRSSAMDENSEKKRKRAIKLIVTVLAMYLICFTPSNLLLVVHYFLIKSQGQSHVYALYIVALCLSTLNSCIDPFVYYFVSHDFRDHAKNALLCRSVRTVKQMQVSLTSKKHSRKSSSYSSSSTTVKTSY
Method: (§7) The above-obtained recombinant baculovirus VL-PAR for expressing the PAR was used to infect 1.0×10^7 Sf9 cells sowed on a 75 cm^2 flask at an MOI=2, and was then left and stationally cultured at 27° C. for 40 hours. After the culture, the infected cells were recovered and then subjected to a calcium influx experiment to-confirm the function of the PAR.
(§8) The recovered infected cells (about 5×10^6 cells) were once washed with HEPES-Tyrode buffer solution-Ca^2+ (−) pH 7.4, and then suspended in 5 mL of HEPES-Tyrode buffer solution (containing Fura2-AM, 1 μg/mL) to load the Fura2-AM on the cells at 27° C. for 30 minutes. The suspension was centrifuged at 800 rpm at room temperature for 5 minutes to recover the cells. The cells were twice washed with HEPES-Tyrode buffer solution-Ca^2+ (−) pH 7.4 and then resuspended in 5 mL of HEPES-Tyrode buffer solution-Ca^2+ (−) pH 7.4. The cell suspension was mixed with 5 μL of 1M CaCl2 to give a final concentration of 1 mM CaCl2, and then incubated in a shaded state at room temperature for 5 minutes. The prepared Fura2-AM-loaded infected cells were dispensed into a 96 well plate in a volume of 100 μL/well, further subjected to the dispensation of HEPES-Tyrode buffer solution-C^2+ (+) pH 7.4 in a volume of 80 μL/well, and then assayed with a Fluorescence Drug Screening System (made by Hamamatsu Photonics Co.). Namely, [intensity of 500 nm fluorescent light due to 340 nm exciting light]/[intensity of 500 nm fluorescent light due to 380 nm exciting light] (reflecting the concentration of calcium in the cells) was assayed.

PAR-4 = molecular target: T2, PAR-4 (Homo sapiens, UniProt Q96RI0); test: Calcium influx in PAR-4-expressing insect cells; type: cell-based; settings: AST 2 units/ml; trypsin, thrombin 0.1 to 10 units/mL
T2 construct: expressed in transfected cells; host or cells: Sf9 insect cells infected with recombinant baculovirus VL-PAR (pVL1393)
T2 sequence (Q96RI0 18-385): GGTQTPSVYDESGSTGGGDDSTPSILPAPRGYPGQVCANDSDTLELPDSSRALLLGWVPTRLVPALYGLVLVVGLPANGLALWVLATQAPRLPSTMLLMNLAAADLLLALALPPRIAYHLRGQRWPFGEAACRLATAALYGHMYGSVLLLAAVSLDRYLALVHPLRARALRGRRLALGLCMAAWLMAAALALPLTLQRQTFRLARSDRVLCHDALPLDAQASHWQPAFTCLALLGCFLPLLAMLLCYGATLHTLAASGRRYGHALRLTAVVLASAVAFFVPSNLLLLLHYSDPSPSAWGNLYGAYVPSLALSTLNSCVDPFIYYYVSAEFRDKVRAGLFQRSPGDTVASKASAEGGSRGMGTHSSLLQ
Method: as §7
as §8, with “Namely, [intensity of 500 nm fluorescent light due to 340 nm exciting light]/[intensity of 500 nm fluorescent light due to 380 nm exciting light] (reflecting the concentration of calcium in the cells) was assayed.” left out

PAR-1 = molecular target: T3, PAR-1 (Homo sapiens, UniProt P25116); test: Calcium influx in PAR-1-expressing insect cells; type: cell-based; settings: AST 2 units/mL; trypsin, thrombin 0.1 to 10 units/mL; SFLLRNamide 10 to 100 μM
T3 construct: expressed in transfected cells; host or cells: Sf9 insect cells infected with recombinant baculovirus VL-PAR (pVL1393)
T3 sequence (P25116 22-425): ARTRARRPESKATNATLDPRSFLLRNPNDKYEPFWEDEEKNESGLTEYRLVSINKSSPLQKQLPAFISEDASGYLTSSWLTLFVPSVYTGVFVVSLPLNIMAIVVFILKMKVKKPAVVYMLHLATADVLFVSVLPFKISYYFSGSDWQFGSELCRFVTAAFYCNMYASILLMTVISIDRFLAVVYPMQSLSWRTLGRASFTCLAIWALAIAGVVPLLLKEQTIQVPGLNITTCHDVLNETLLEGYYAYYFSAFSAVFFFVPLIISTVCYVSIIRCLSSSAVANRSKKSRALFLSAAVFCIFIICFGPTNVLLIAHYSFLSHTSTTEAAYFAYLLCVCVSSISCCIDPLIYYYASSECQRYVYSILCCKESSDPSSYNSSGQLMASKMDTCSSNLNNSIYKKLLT

| Compound | EGF expression intensity on the surfaces of the cell membranes (average fluorescence intensity) [1] | HB-EGF expression intensity on the surfaces of the cell membranes (average fluorescence intensity) [2] | production of the mucus glycoprotein (NCI-H292 cells) | Ca2+ influx (PAR-2) | further results |
| --- | --- | --- | --- | --- | --- |
| C=CC[C@H](C(=O)NO)[C@@H](CC(C)C)C(=O)N[C@@H](Cc1ccccc1)C(=O)NC [BB01, reference compound] | 7.49 | 6.65 | – | – | – |
| CC(=O)N[C@@H](CC(C)C)C(=O)N[C@@H](CC(C)C)C(=O)N[C@H](C=O)CCCNC(=N)N [leupeptin, reference compound] | 10.18 | 7.3 | – | – | – |
| HB-EGF: Heparin-binding EGF-like Growth Factor, EGFR ligand, produced by R & D Corp. [reference compound] | – | – | promoted | – | – |
| SLIGRL [agonist peptide for PAR-2] | – | – | – | observed | – |
| TGF-α: Transforming Growth Factor-α, EGFR ligand, produced by Peprotech Corp. [reference compound] | – | – | promoted | – | – |
| thrombin [reference compound] | – | – | – | observed | Ca2+ influx (PAR-4): observed; Ca2+ influx (PAR-1): observed |
